The test system of series [1] is rat plasma albumin. Nature of the series: Plasma protein binding (ultracentrifugation), rat. Also: tested at 0.2 µM. Type of series: in vitro ADME. As to the method: The binding degree of the assay compound to human/mouse/rat/canine/monkey plasma albumin was studied.
• 1) Matrix preparation: on the day of the assay, plasma was thawed in cold water and centrifuged at 3220 rpm for 5 min to remove all clots. The pH of the resulting plasma was measured and adjusted to 7.4±0.1 using 1% phosphoric acid or IN sodium hydroxide as needed. • 2) Dilution procedure for the assay compound: the assay compound was dissolved in dimethyl sulfoxide (DMSO) to prepare stock solutions with concentrations of 10 mM and 2 mM, respectively. A 40 μM working solution was prepared by diluting 2 μL of stock solution (2 mM) with 98 μL of DMSO. A 400 μM working solution of the control compound was prepared by diluting 10 μL of stock solution with 240 μL of DMSO. The working solution of the compound (5 μL) was mixed well with a blank matrix (995 μL) at a ratio of 1:200 to prepare a loading matrix.
• a) An equal volume of 30 μL of loading matrix (n=2) was transferred to a sample collection plate to prepare a time 0 (TO) sample for residue determination. The sample was immediately matched with the corresponding blank buffer to a final volume of 60 μL, and the volume ratio of plasma to buffer in each well was 1:1. […] The mixture was centrifuged at 4000 rpm for 20 min and 100 μL of supernatant from each sample was analyzed by LC-MS/MS.

The target in series [2] is ERK1 kinase (Homo sapiens (Human), UniProt P27361). Nature of the series: ERK1 in vitro kinase activity assay (33P-ATP, MBP substrate, filter-binding). Type of series: biochemical. The procedure: The ability of the compound to inhibit ERK1 and ERK2 kinase activity was measured.
ERK1 kinase, sequence (P27361 whole entry): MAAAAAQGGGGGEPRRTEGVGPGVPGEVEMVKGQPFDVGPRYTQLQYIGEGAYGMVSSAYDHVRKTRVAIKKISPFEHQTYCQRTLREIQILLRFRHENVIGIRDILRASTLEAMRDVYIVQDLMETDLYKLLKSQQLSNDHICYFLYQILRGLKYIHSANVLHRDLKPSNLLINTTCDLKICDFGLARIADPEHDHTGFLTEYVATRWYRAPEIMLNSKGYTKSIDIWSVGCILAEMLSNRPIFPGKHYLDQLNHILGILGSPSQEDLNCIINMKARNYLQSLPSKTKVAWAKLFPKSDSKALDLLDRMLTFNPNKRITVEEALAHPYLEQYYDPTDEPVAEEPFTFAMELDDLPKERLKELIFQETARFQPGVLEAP
20 mM Hepes (pH 7.5), 10 mM MgCl2, 1 mM ethylenebis(oxyethylenenitrilo)tetraacetic acid (EGTA), 0.02% Brij35, 0.02 mg/mL bovine serum albumin (BSA), 0.1 mM Na3VO4, 2 mM dithiothreitol (DTT), 1% DMSO.
The assay compound was dissolved in 100% DMSO to prepare a stock solution of specific concentration. The compound was serially diluted in DMSO solution using Integra Viaflo Assist smart pipette.
• 1) The substrate MBP was prepared in freshly prepared reaction buffer; • 2) ERK1 (or ERK2) kinase was added to the above-mentioned MBP solution and mixed gently; • 3) The compound dissolved in 100% DMSO was added to the kinase reaction system using ultrasound technology (Echo550; nanoliter range), and the mixture was incubated at room temperature for 20 minutes; • 4) 33P-ATP (specific concentration of […]) was added to the reaction system, and the reaction was started at this time; • 5) The mixture was incubated at room temperature for 2 hours; • 6) The amount of radioactivity was detected by filter-binding method; • 7) ERK1 (or ERK2) kinase activity was calculated as the ratio of the remaining kinase activity in the assay sample to the kinase activity of the control group (treated by DMSO). Curve was fitted using Prism (GraphPad software) and IC50 values were calculated. • 5.

The nature of series [3]: Body weight and tolerance in A375 model animals. Type of series: in vivo. Conditions: 12.5, 25 and 50 mg/kg PO BID, to the 21st day. As to the method:
(§1) • 3) Daily observation of assay animals: The development of this assay protocol and any modifications were evaluated and approved by the Institutional Animal Care and Use Committee (IACUC). The use and welfare of assay animals were carried out in accordance with the regulations of the Association for Assessment and Accreditation of Laboratory Animal Care (AAALAC). Animals were monitored daily for health and death. […] Animal deaths and side effects in each group were recorded based on the number of animals in each group. • 4) Formulation of assay compound • a) Vehicle group: 5% DMSO+95% (20% HP-β-CD). • b) Assay compound group: A quantitative amount of the assay compound was weighed in a formulation bottle. […] A corresponding volume of 20% HP-β-CD was added and then the mixture was vortexed to obtain a homogeneous suspension. • 5) Tumor measurement and assay indicator: • a) Tumor diameter was measured twice a week with a vernier caliper. The calculation formula of tumor volume was: TV=1/2×a×b^2, wherein a and b represent the long and short diameters of tumor, respectively: • b) The tumor-inhibitory efficacy of the compound was evaluated by TGI (%). […]

In series [4] the test system is human melanoma A375 cells. The series can be described thus: In vivo efficacy in subcutaneous xenograft tumor model of human melanoma A375. To be noted: PO, BID, day 21, BALB/c nude mouse A375 xenograft. As to the method: The anti-tumor effect of WX001 was evaluated using a subcutaneous xenograft tumor model of human melanoma A375 cells in nude mouse.
• Species: mouse • Strain: BALB/c nude mouse • Age: 6-8 weeks old • Gender: female • Body weight: 18-22 grams • Supplier: Vital River Laboratory Animal Technology Co., Ltd.
• 1) Assay cells and culture: Human melanoma A375 cells were cultured in monolayer in vitro. The culture conditions were DMEM medium plus 10% fetal bovine serum, and a 37° C. 5% CO2 incubator. Routine digestion with trypsin-EDTA was performed twice a week for passage. When the cell saturation was 80%-90% and the amount reached the requirement, the cells were harvested, counted, and inoculated: • 2) Tumor tissue inoculation and grouping: 0.1 mL (5×10^5) of A375 cells were subcutaneously inoculated into the right armpit of each mouse. When the average tumor volume reached 170 mm^3, the animals were randomly divided into 4 groups and the administration was started.
as §1, with “The use and welfare of assay animals were carried out in accordance with the regulations of the Association for Assessment and Accreditation of Laboratory Animal Care (AAALAC).” left out
(A xenograft is tissue or cells of one species grown in another, often human tumour cells in immunodeficient mice.)

The text below walks through data of patent publication US20240309018A1, “THIAZOLE-LACTAM-SPIROHETEROCYCLIC COMPOUNDS AND APPLICATIONS THEREOF” (D3 BIO (WUXI) CO., LTD, priority 2021, published 2024).

Entries after “also recorded” stand apart in the source; their conditions may differ.

As usually defined, the IC50 is the point on the concentration scale where inhibition reaches its midpoint. In the case of `Cc1cccc(CN2C(=O)c3nc(-c4nc(Nc5ccnn5C)ncc4C)sc3C23COC3)n1` [WX001], the “Plasma protein binding rate (unbound %)” value in series [1] is recorded as 8.4%. Also, the IC50 in series [2] amounted to 1.4 nM. In addition, the “body weight of animals” value in series [3] is recorded as “did not decrease significantly; also recorded: not observed to decrease significantly”. The tolerance result in series [3] is given as “good”. The TGI came to 45% in series [4] (12.5 mg/kg), 58% in series [4] (25 mg/kg) and 102% in series [4] (50 mg/kg).
